Experimental data as given in US11426367B2, “Methods of treating substance abuse” (Perception Neuroscience, Inc., priority 2018, dated 2022).

Experiments:
Format in all cases: in vivo
DEX-treated mice = experiment: Tail suspension test (TST), neonatal dexamethasone exposure model of depression; details: juvenile DEX-treated mice, 10 mg/kg i.p. single injection
Description: A new animal model of depression was prepared by exposing mice neonatally to dexamethasone (hereinafter abbreviated as DEX). […] The mouse model was prepared and reported only recently by the inventors of the present application and their collaborators (Non Patent Literature 18). […] Further, alterations were found in levels of amino acids (glutamate, glutamine, glycine, D-serine, and L-serine) in mouse brains after the neonatal DEX exposure (Non Patent Literature 18). Those amino acids are known to be associated with NMDA receptor mediated neurotransmission. Thus, it is conceivable that alterations in glutamatergic transmission via the NMDA receptor after the neonatal DEX exposure may be involved in the depression-like behavior in the juvenile mice and the adult mice (Non Patent Literature 18).
The preparation of the animal model of depression and the administration of the agent were specifically performed as described below (FIG. 2A). Male and female ICR mice (9-week-old, Japan SLC, Inc., Hamamatsu, Japan) were used. The mice were given free access to water and feed. A breeding procedure consisted of housing three to four females with one male, for 14 days. On the final day of this period, the females were placed in isolation and checked daily around the expected delivery day. The day of birth was defined as day 0. The mice were injected intraperitoneally with DEX (Wako Pure Chemical Industries, Ltd., Tokyo, Japan) dissolved in saline on day 1, day 2, and day 3 at doses of 0.5 mg/kg body weight, 0.3 mg/kg body weight, and 0.1 mg/kg body weight, respectively. In addition, normal controls were injected with equal volumes (10 ml/kg) of saline.
The antidepressant effects of the agent were investigated for juvenile mice by behavioral tests such as the TST, the PST, the LMT, and a 1% sucrose preference test (SPT) (FIG. 2A). The TST and the PST were performed twice, i.e., the day (27 hours and 29 hours, respectively) and 7 days after the injection of ketamine, and the LMT and the SPT were performed on the day and 2 days after the injection of ketamine. The TST was performed as described below. First, the mice were taken out from cages, and then a small piece of an adhesive tape was bonded onto a portion approximately 2 cm away from the tip of the tail of the mice. […] The immobility time of each mouse was recorded for 10 minutes. […] The immobility time was calculated as a value obtained by subtracting active time from total time, using the analysis software of the apparatus. Cumulative immobility time was recorded over 6 minutes during a test period. […] The locomotor activity of the mice was counted with SCANET MV-40, and the cumulative exercise of the mice was recorded for 60 minutes. […]

[1] = system: social defeat stress mice; experiment: Forced swimming test (FST), social defeat stress model; details: 10 mg/kg i.p.
Description: A social defeat stress model of depression was prepared by bringing C57/B6 male mice into contact with ICR male mice (large aggressive mice) for 10 consecutive days to apply a stress called a “social defeat stress” in accordance with the previous report (Non Patent Literature 19). […] Specifically, an increase in immobility time was found in each of a tail suspension test (TST) and a forced swimming test (FST).
The preparation of the animal model of depression and the administration of the agent were specifically performed as described below (FIG. 3A). Male C57/B6 mice (7-week-old, Japan SLC, Inc., Hamamatsu, Japan) and ICR mice (9-week-old, Japan SLC, Inc., Hamamatsu, Japan) were used. The mice were given free access to water and feed. A social defeat stress was applied by housing one C57/B6 mouse with one ICR mouse for 10 days.
The antidepressant effects of the agent were investigated by behavioral tests such as the TST, the PST, the LMT, and a 1% sucrose preference test (SPT) (FIG. 3A). The 1% sucrose preference test (SPT) was performed on 1 day and 6 days after the injection of ketamine. Each of the TST and the PST was performed on 2 days and 7 days after the injection of ketamine. The TST was performed as described below. First, the mice were taken out from cages, and then a small piece of an adhesive tape was bonded onto a portion approximately 2 cm away from the tip of the tail of the mice. A small hole was opened in the small piece, and the mice were each fixed upside down on a hook through the small hole. The immobility time of each mouse was recorded for 10 minutes. Mice were considered immobile only when they hung passively and completely motionless. The immobility time increases in a depressive state. The PST was performed as described below. First, the mice were placed individually in a cylinder (diameter: 23 cm; height: 31 cm) containing 15 cm of water, maintained at 22 to 24 deg C. The mice were tested in an automated forced-swimming apparatus using SCANET MV-40 ([…] Co., Ltd., Toyama, Japan). The immobility time was calculated as a value obtained by subtracting active time from total time, using the analysis software of the apparatus. Cumulative immobility time was recorded over 6 minutes during a test period. The LMT was performed as described below. First, the mice were placed in experimental cages (length×width×height: 560×560×330 mm). The locomotor activity of the mice was counted with SCANET MV-40, and the cumulative exercise of the mice was recorded for 60 minutes. The cages were cleaned between testing session. The immobility time increases in a depressive state. […] A spine density was quantitatively evaluated by observation with a KEYENCE microscope (BZ-9000, Osaka, Japan).

Control C57/B6 mice = experiment: Locomotion-enhancing effect in control mice
Description: An effect of ketamine on the locomotion of mice was tested using SCANET MV-40 ([…] Co., Ltd., Toyama, Japan). Specifically, the locomotion was measured for a total of 180 minutes, i.e., 60 minutes before injection to 120 minutes after injection, and calculated as a locomotion per 10 minutes. The statistical analysis of the results of the locomotion was performed by repeated one-way analysis of variance (repeated one-way ANOV A), followed by a least significant difference test (LSD test).

## CN[C@@]1(c2ccccc2Cl)CCCCC1=O.Cl [R(−)-ketamine]
DEX-treated mice; 27 hours after injection
  immobility time in the TST: markedly reduced the immobility time
DEX-treated mice; 7 days after injection
  immobility time in the TST: significantly reduced the immobility time
[1]; 2 days after injection
  immobility time in the FST: markedly reduced the immobility time
[1]; 7 days after injection
  immobility time in the FST: significantly reduced the immobility time
Control C57/B6 mice; control mice, 5, 10 or 20 mg/kg
  locomotion after injection: did not affect the locomotion

## CN[C@]1(c2ccccc2Cl)CCCCC1=O [S(+)-ketamine]
DEX-treated mice; 27 hours after injection
  immobility time in the TST: markedly reduced the immobility time
DEX-treated mice; 7 days after injection
  immobility time in the TST: did not reduce the immobility time
[1]; 2 days after injection
  immobility time in the FST: markedly reduced the immobility time
[1]; 7 days after injection
  immobility time in the FST: significantly reduced the immobility time
Control C57/B6 mice; control mice, 10 mg/kg or 20 mg/kg
  time after injection at which locomotion returned to a normal value: 30 min
Control C57/B6 mice; control mice, 10 mg/kg or 20 mg/kg, 10 minutes and 20 minutes after injection, vs saline
  locomotion after injection: significant increase in locomotion
